Values quoted from earlier work in patent US12083128B2, “Use of medications with neuroprotective properties to prevent or reduce the risk of ischemia-reperfusion injury in a subject” (priority 2015, dated 2024).
Like-named read-outs stand apart in the source and are kept apart here.

Tests used:
[1] = intravitreal injections for AMD, 49 eyes followed for 12 months; cited from earlier work
[2] = test system: endothelin 1 induced ischemic retinal injury; conditions: daily topical administration, animals; cited from earlier work
[3] = test system: retinal gangion cells; conditions: in vivo, animals; cited from earlier work
[4] = test system: optic nerve blood flow; conditions: animal models; cited from earlier work
[5] = test system: retinal gangion cells; conditions: in vitro; cited from earlier work

Compound | RNFL thinning [1] | RNFL thickness in treated eyes [2] | protection against endothelin 1 induced ischemic retinal injury [2] | protection of retinal ganglion cells from apoptosis [3] | optic nerve blood flow [4] | protection of retinal ganglion cells from apoptosis [5]
Ranibizumab | caused significant RNFL thinning |  |  |  |  | 
CC(C)OC(=O)CCC/C=C\C[C@@H]1[C@@H](/C=C/C(F)(F)COc2ccccc2)[C@H](O)C[C@@H]1O [tafluprost] |  | thicker in treated eyes | protective | protects retinal gangion cells from apoptosis | improved optic nerve blood flow | protects retinal gangion cells from apoptosis
